Data taken from PMC12186257, “Serendipitous and Systematic Chemoproteomic Discovery of MBLAC2, HINT1, and NME1‑4 Inhibitors from Histone Deacetylase-Targeting Pharmacophores” (ACS Chemical Biology, 2025).

Legend:
[1] = test system: recombinant NME1–4; assay: nucleoside diphosphate kinase activity assay (ATP production from ADP and GTP, Kinase-GLO); assay type: biochemical; conditions: in vitro
Experimental: To evaluate whether KV-50 binding affects NME activity, we performed enzyme activity assays using recombinant NME1–4. The assay measured NME-catalyzed production of ATP from ADP (150 μM) and GTP (150 μM).
Nucleotide diphosphate kinase activity assays. The phosphotransfer activity of the NDPKs (NME1-4) was measured in a reaction mixture containing buffer A (20 mM Tris-HCl pH 8.0, 150 mM NaCl, and 1 mM MgCl2). All the samples were pipetted in replicates on a 384 well plate. One volume of the respective NDPK protein solution (NME1-4) was added from stock proteins (diluted in buffer a to a concentration of 300 pM) to the wells in four replicates. To these wells, one volume of the inhibitors (Six dilutions were prepared, starting with a 30 µM stock solution and then performing three-fold serial dilutions) was added and incubated at room temperature for 30 minutes. Then, one volume of the substrate mixture (300 μM GTP and 30 μM ADP) was added to the protein-inhibitor mixture-containing wells and incubated at room temperature for 30 minutes. Finally, three volumes of the Kinase-GLO reagent (Promega V6711) containing an ATP-dependent firefly luciferase were added to all the wells and five minutes later, the luminescence was measured using a plate reader. Eight different concentrations of ATP (0 - 10 μM) were used as standards for a calibration curve to calculate the amount of ATP produced by the different NDPKs.

[2] = test system: Toxoplasma gondii; design: method as in PMID 33360687, PMID 35483428, PMID 38431113, PMID 29414107; conditions: in human host cells; cited from earlier work
[3] = test system: compound-binding proteins such as HDACs, MBLAC2, ISOC1/2, ALDH2, and GATD3A; assay: chemoproteomic competition assay, proteome-wide target binding profile; design: species or system human; conditions: dose-dependent competition
Experimental: MBLAC2 is a metalloenzyme predicted to harbor one or two Zn^2+ ions in its active site. […] In this assay, compounds of interest are incubated at increasing concentrations with a mixture of lysates of MV4–11 and SW620 cells. The compound-treated lysates are then mixed with bead-immobilized hydroxamic acid-containing compounds iA, iC, and iQ (immobilized Quisinostat), which pull down compound-binding proteins such as HDACs, MBLAC2, ISOC1/2, ALDH2, and GATD3A (Figure a) that can be identified and quantified by mass spectrometry (MS). Proteins targeted by the library compounds in a preincubation step are prevented from being pulled down by the immobilized probes, leading to a dose-dependent reduction in MS signal. Initially, 12 metal-chelating compounds were profiled at two concentrations (10 μM and 100 μM) (Figure S3).
Chemoproteomic competition assays
Sample preparation. For the MBLAC2 and HDAC inhibitor competition assay, the generation of affinity matrices, lysate generation, pulldown assay, and sample preparation were performed as described in detail in REF1. For the kinobeads assay, the generation of affinity matrices, lysate generation, pulldown assay, and sample preparation were performed as described in detail in REF2.
LC-MS/MS. The different sample types were measured with different LC-MS/MS settings. MBLAC2 2-dose competition assays were measured with the Lumos1 setup, MBLAC2 9-dose competition assays were measured with the Lumos2 setup, and kinobeads assays were measured with the Eclipse setup.
Peptides were analyzed via LC–MS/MS on a Dionex Ultimate3000 nano HPLC coupled to either one of two Orbitrap Fusion Lumos mass spectrometers, or to an Orbitrap Eclipse mass spectrometer, operated via the Thermo Scientific Xcalibur software.
In the all setups, peptides were loaded on a trap column (100 μm × 2 cm, packed in-house with Reprosil-Gold C18 ODS-3 5 μm resin, Dr. Maisch, Ammerbuch) and washed with 5 μL/min solvent A (0.1% formic acid in HPLC grade water) for 10 min. Peptides were then separated on an analytical column (75 μm × 40 cm, packed in-house with Reprosil-Gold C18 3μm resin, Dr. Maisch, Ammerbuch) using a 50 min gradient ranging from 4 to 32% solvent B (0.1% formic acid, 5% DMSO in acetonitrile) in solvent A (0.1% formic acid, 5% DMSO in HPLC grade water) at a flow rate of 300 nL/min.
The mass spectrometers were operated in data-dependent mode, automatically switching between MS1 and MS2 spectra. MS1 spectra were acquired over a mass-to-charge (m/z) range of 360–1300 m/z at a resolution of 60,000 (at m/z 200) in the Orbitrap using a maximum injection time of 50 ms and an automatic gain control (AGC) target value of 4e5.
In Lumos settings, up to 12 peptide precursors were isolated in (isolation width of 1.2 Th for Lumos1 and 1.7 for Lumos2, maximum injection time of 75 ms, AGC value of 1e5 for Lumos1 and 2e5 for Lumos2), fragmented by HCD using 30% normalized collision energy (NCE) and analyzed in the Orbitrap at a resolution of 15,000 (Lumos2) or 30,000 (Lumos1). The dynamic exclusion duration of fragmented precursor ions was set to 20 s (Lumos1) or 30 s (Lumos2). In Eclipse measurements, a cycle time of 2 s was chosen. Peptides were isolated in the quadrupole with an isolation offset of 1.2 (isolation width of 1.2 Th, maximum injection time of 54 ms, AGC target of 200%) and fragmented by […]

| targets / off-targets bound [3] | SMILES | effect on NME enzyme activity [1] | inhibition of proliferation of protozoans [2] |
| --- | --- | --- | --- |
| bound to HINT1 and NME4 | O=C(NO)c1ccc(-c2nc3ccccc3n3cccc23)cc1 [KV-24] | only modestly reduced NME enzyme activity | potently inhibit the proliferation |
| bound to HINT1 and NME4 | O=C(NO)c1ccc(-c2nc3ccccc3c3ccccc23)cc1 [KV-30] | only modestly reduced NME enzyme activity | potently inhibit the proliferation |
